Measured values published in patent US20260217707A1, “GLP-1R AGONISTS AND USES THEREOF” (Fochon Biosciences, Ltd., priority 2023, published 2026).

Target: GLP1R receptor (Homo sapiens, UniProt P43220)
Assay: cAMP assay: intracellular cAMP detected by TR-FRET
Format: cell-based
Settings: cells incubated with compound at 37° C. for 30 min, maximum concentration 12 μM
Protocol: Intracellular cAMP concentration was detected by TR-FRET method to evaluate the activity of drug-induced GLP1R receptor. The cells were prepared in an experimental buffer solution (HBSS, 20 mM HEPES (pH 7.5), 0.1% BSA, 500 μM IBMX) and inoculated into 384 cell culture plates with a inoculated density of 2000 cells and a inoculated volume of 15 μL per well. The compound was diluted by 3 times gradient with DMSO, 10 concentration gradients, and the 10 concentration gradients were diluted by 100 times in Buffer. The maximum concentration point of compound to be tested was 12 μM. The inoculated 384 cell plates were added with 5 μL prepared working solution and incubated at 37° C. for 30 min. Eu-cAMP tracer was diluted 50 times and Ulight-anti-cAMP 150 times by detection buffer (cAMP Kit, Perkin Elmer, cat #TRF0263). At first, 10 μL Eu-cAMP tracer was added to each experimental well, and then 10 μL Uligh-anti-cAMP was added to each experimental well. Centrifuged the assay plate at 200 g, RT, for 30 s, incubated it at 25° C. for 1 h. Collected the data by Envision 2105 microplate reader with a HTRF module. Excitation: 340 nm; emission: 665 nm and 615 nm.
The activation rate of each concentration of the tested compound to the positive drug was calculated by the formula % Activity=100 (SignalcmpdSignalAve_PC)/(SignalAve_VCSignalAve_PC)×100, EC50 values and nonlinear regression curve fits were obtained using GraphPad Prism software.

Sequence of GLP1R receptor (P43220 24-463): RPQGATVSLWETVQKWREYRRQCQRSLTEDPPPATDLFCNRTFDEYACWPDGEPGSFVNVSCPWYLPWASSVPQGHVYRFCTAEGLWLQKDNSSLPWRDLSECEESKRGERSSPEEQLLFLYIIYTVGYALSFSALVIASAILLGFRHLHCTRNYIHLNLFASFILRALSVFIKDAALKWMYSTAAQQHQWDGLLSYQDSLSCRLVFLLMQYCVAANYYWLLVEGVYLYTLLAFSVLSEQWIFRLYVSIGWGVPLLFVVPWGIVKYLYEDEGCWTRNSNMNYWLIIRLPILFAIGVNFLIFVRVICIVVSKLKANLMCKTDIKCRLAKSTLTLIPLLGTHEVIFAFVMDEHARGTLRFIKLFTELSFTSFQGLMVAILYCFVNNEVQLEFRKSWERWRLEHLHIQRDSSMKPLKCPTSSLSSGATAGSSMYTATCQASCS

Row | Compound | EC50 [nM]
1 | Cc1cc(-n2nc3c(c2-n2ccn(-c4ccc5c(cnn5C)c4F)c2=O)[C@H](C)N(C(=O)c2sc4cc(C5CCOC(C)(C)C5)ccc4c2C2(c4noc(=O)[nH]4)C[C@@H]2C)CC3)cc(C)c1F (some centres unmarked) [Example 3] | 0.406
2 | Cc1cc(-n2nc3c(c2-n2ccn(-c4ccc5c(cnn5C)c4F)c2=O)[C@H](C)N(C(=O)c2sc4nc(C5CCOC(C)(C)C5)ccc4c2C2(c4noc(=O)[nH]4)C[C@@H]2C)CC3)cc(C)c1F (stereo partly drawn) [Example 29, 3-((2S)-1-(6-(2,2-dimethyl-tetrahydro-2H-pyran-4-yl)-2-((S)-3-(3-(4-fluoro-1-methyl-1H-indazol-5-yl)-2-oxo-2,3-dihydro-1H-imidazol-1-yl)-2-(4-fluoro-3,5-dimethyl-phenyl)-4-methyl-4,5,6,7-tetrahydro-2H-pyrazolo[4,3-c]pyridine-5-carbonyl)thieno [2,3-b]pyridin-3-yl)-2-methylcyclopropyl)-1,2,4-oxadiazol-5(4H)-one] | 0.093
3 | Cc1cc(-n2nc3c(c2-n2ccn(-c4ccc5c(cnn5C)c4F)c2=O)[C@H](C)N(C(=O)c2oc4cc(C5CCOC(C)(C)C5)ncc4c2C2(c4noc(=O)[nH]4)C[C@@H]2C)CC3)cc(C)c1F (stereo partly drawn) [Example 31, 3-((2S)-1-(6-(2,2-dimethyl-tetrahydro-2H-pyran-4-yl)-2-((S)-3-(3-(4-fluoro-1-methyl-1H-indazol-5-yl)-2-oxo-2,3-dihydro-1H-imidazol-1-yl)-2-(4-fluoro-3,5-dimethylphenyl)-4-methyl-4,5,6,7-tetrahydro-2H-pyrazolo[4,3-c]pyridine-5-carbonyl)furo[3,2-c]pyridin-3-yl)-2-methyl-cyclopropyl)-1,2,4-oxadiazol-5(4H)-one] | 0.182

The remaining molecules from weak to strong by EC50, led by results:

Row | EC50 [nM] | Compound
4 | 0.087 | Cc1cc(-n2nc3c(c2N2C(=O)N(c4ccc5c(cnn5C)c4F)C4CC42)[C@H](C)N(C(=O)c2cc4cc([C@H]5CCOC(C)(C)C5)ccc4n2[C@@]2(c4noc(=O)[nH]4)C[C@@H]2C)CC3)cc(C)c1F (stereo partly drawn) [Example 6, 3-((1S,2S)-1-(5-((S)-2,2-dimethyltetrahydro-2H-pyran-4-yl)-2-((4S)-3-(4-(4-fluoro-1-methyl-1H-indazol-5-yl)-3-oxo-2,4-diazabicyclo[3.1.0]hexan-2-yl)-2-(4-fluoro-3,5-dimethylphenyl)-4-methyl-4,5,6,7-tetrahydro-2H-pyrazolo[4,3-c]pyridine-5-carbonyl)-1H-indol-1-yl)-2-methylcyclopropyl)-1,2,4-oxadiazol-5(4H)-one]
5 | 0.044 | Cc1cc(-n2nc3c(c2-n2ccn(-c4ccc5c(cnn5C)c4F)c2=O)[C@H](C)N(C(=O)c2sc4cc(C5CCOC(C)(C)C5)cnc4c2C2(c4noc(=O)[nH]4)C[C@@H]2C)CC3)cc(C)c1F (stereo partly drawn) [Example 30, 3-((2S)-1-(6-(2,2-dimethyl-tetrahydro-2H-pyran-4-yl)-2-((S)-3-(3-(4-fluoro-1-methyl-1H-indazol-5-yl)-2-oxo-2,3-dihydro-1H-imidazol-1-yl)-2-(4-fluoro-3,5-dimethylphenyl)-4-methyl-4,5,6,7-tetrahydro-2H-pyrazolo[4,3-c]pyridine-5-carbonyl)thieno[3,2-b]pyridin-3-yl)-2-methyl-cyclopropyl)-1,2,4-oxadiazol-5(4H)-one]
